29 molecules from patent US10005736B1, “Pyridine and pyrimidine derivatives” (Hoffmann-La Roche Inc., priority 2015, dated 2018) can be followed below.

The term melting point denotes the temperature of the solid-liquid transition. The Kb is the equilibrium dissociation constant of an antagonist, usually derived from a functional assay.

One series has as its target T1, human EAAT3 (Homo sapiens, UniProt P43005).
T1 construct: expressed in transfected cells; host or cells: HEK-293
T1 sequence (P43005 1-524): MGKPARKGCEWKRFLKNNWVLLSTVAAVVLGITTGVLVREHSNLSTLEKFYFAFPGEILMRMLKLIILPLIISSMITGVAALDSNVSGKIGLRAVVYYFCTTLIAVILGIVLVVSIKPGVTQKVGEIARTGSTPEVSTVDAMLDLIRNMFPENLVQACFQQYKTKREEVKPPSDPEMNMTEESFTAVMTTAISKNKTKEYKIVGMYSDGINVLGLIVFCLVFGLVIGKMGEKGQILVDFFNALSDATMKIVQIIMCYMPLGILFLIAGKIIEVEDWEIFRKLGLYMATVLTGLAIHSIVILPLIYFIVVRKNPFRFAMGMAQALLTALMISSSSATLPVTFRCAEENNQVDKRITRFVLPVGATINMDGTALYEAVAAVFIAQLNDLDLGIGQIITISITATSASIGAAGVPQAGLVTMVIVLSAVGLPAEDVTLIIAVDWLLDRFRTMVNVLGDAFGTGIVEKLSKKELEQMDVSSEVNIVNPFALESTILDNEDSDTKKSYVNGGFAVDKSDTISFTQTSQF
Kind of series: FLIPR Membrane Potential (FMP) assay, antagonist potency at human EAAT3. Type of series: cell-based. Particulars: HEK-293 cells stably expressing human EAAT3; L-glutamate as agonist at EC80; antagonists applied 15 min before; Kb by Cheng-Prusoff from IC50. The protocol: The FLIPR Membrane Potential (FMP) Assay
HEK-293 cells stably expressing human EAAT3 were seeded at 55 000 cells/well in growth medium (DMEM glutamate free (Invitrogen 11960-044), 1% Pen Strep (10 ml/1 GIBCO BRL N^o 15140-023), 10% FCS non dialysed heat inactivated, 5 mg/l puromycin) in poly-D-lysine treated 96-well black microtiter plates with clear-bottom. After 24 h, the growth medium was removed and […] of Krebs buffer (140 mM NaCl, 4.7 mM KCl, 2.5 mM CaCl2, 1.2 mM MgCl2, 11 mM HEPES, 10 mM D-glucose, pH=7.4) added. The cells were then loaded by adding 100 μl/well FMP assay dye (FLIPR Membrane Potential assay reagent, Molecular Devices). The 96-well plates were then incubated at 37° C. for 1 h. The depolarization of the cells will cause more dye to enter in the cells, where it will bind to intracellular proteins and lipids and cause an increase in the fluorescence signal. Antagonist potency at human EAAT3 was determined by using L-glutamate as agonist at a concentration which gives 80% of the maximum response. The antagonists were applied 15 min before the application of the agonist L-glutamate. The assays were performed at room temperature and measurements done by using a Fluorometric Imaging Plate Reader (FLIPR, Molecular Devices) and filter #2. Responses were measured as peak increase in fluorescence minus basal (i.e. fluorescence without addition of L-glutamate). Kb was determined using the Cheng-Prusoff equation Kb=IC50/[1+(A/EC50)], where IC50 is the concentration of the antagonist producing 50% inhibition, A is the concentration of the agonist against which the IC50 is being determined (at EC80) and EC50 is the concentration of the agonist producing 50% […].

`Cc1ncccc1-c1cc(C(=O)NC(C)(C)C)cc(-c2ccc(F)cc2)c1` [Example 24, N-tert-Butyl-3-(4-fluorophenyl)-5-(2-methylpyridin-3-yl)-benzamide] registered a melting point of 78 °C. Besides, the Kb at human EAAT3 turned out to be 170 nM.
Turning to `CC(C)c1ncncc1-c1cc(C(=O)NC(C)(C)C#N)cc(-c2ccc(Cl)cc2)c1` [Example 38, 3-(4-Chlorophenyl)-N-(2-cyanopropan-2-yl)-5-(4-propan-2-yl-pyrimidin-5-yl)-benzamide], the melting point was 97 °C. For the same molecule, the Kb at human EAAT3 was found to be 160 nM.
`CC(C)(C)NC(=O)c1cc(-c2ccc(Cl)cc2)cc(-c2cccnc2)c1` [Example 8, N-tert-Butyl-3-(4-chlorophenyl)-5-pyridin-3-ylbenzamide]: the melting point was found to be 177 °C. This molecule showed a Kb at human EAAT3 of 350 nM.
On the same counts, the results for `CC(C)c1ncncc1-c1cc(C(=O)NC(C)(C)C#N)cc(-c2ccc(C(F)(F)F)cc2)c1` [Example 37, N-(2-Cyanopropan-2-yl)-3-(4-propan-2-yl-pyrimidin-5-yl)-5-[4-(trifluoromethyl)-phenyl]-benzamide] are 98 °C and 210 nM.
`CCc1ncncc1-c1cc(C(=O)NC(C)(C)C)cc(-c2ccc(Cl)cc2)c1` [Example 40, N-tert-Butyl-3-(4-chlorophenyl)-5-(4-ethyl-pyrimidin-5-yl)-benzamide]: the melting point came to 75 °C. At human EAAT3, the Kb was determined as 140 nM.
On to `CC(C)c1ncccc1-c1cc(C(=O)NC(C)(C)C)cc(-c2ccc(Cl)cc2)c1` [Example 15, N-tert-Butyl-3-(4-chlorophenyl)-5-(2-propan-2-ylpyridin-3-yl)-benzamide], for which, at human EAAT3, the antagonist dissociation constant (Kb) stood at 630 nM.
Turning to `CC(C)(C)NC(=O)c1cc(-c2ccc(F)cc2)cc(-c2cncnc2C(C)(C)C)c1` [Example 51, N-tert-Butyl-3-(4-tert-butyl-pyrimidin-5-yl)-5-(4-fluorophenyl)-benziimide], the melting point is 102 °C.
For `Cc1cc(-c2cc(C(=O)NC(C)(C)C#N)cc(-c3cncnc3C(C)C)c2)ccc1F` [Example 35, N-(2-Cyanopropan-2-yl)-3-(4-fluoro-3-methylphenyl)-5-(4-propan-2-yl-pyrimidin-5-yl)-benzamide], the melting point amounted to 101 °C. Also, on human EAAT3, the Kb was determined as 350 nM.
With `CCC(C)(C)NC(=O)c1cc(-c2ccc(C)cc2)cc(-c2cccnc2C(C)C)c1` [Example 14, N-(2-Methylbutan-2-yl)-3-(4-methylphenyl)-5-(2-propan-2-ylpyridin-3-yl)-benzamide], the Kb on human EAAT3 was 570 nM. In other words, the sub-micromolar range.
`CC(C)(C)NC(=O)c1cc(-c2ccc(F)c(F)c2)cc(-c2cncnc2C(C)(C)C)c1` [Example 48, N-tert-Butyl-3-(4-tert-butyl-primidin-5-yl)-5-(3,4-difluorophenyl)-benzamide] displayed a melting point of 99 °C.
In turn, `CCC(C)(C)NC(=O)c1cc(-c2ccc(C)cc2)cc(-c2cnccc2C(C)C)c1` [Example 6, N-(2-Methylbutan-2-yl)-3-(4-methylphenyl)-5-(4-propan-2-ylpyridin-3-yl)-benzamide] had a Kb on human EAAT3 of 380 nM.
`CC(C)c1ncncc1-c1cc(C(=O)NC2(C)CCS(=O)(=O)C2)cc(-c2ccc(Cl)cc2)c1` (racemic) [Example 12, (RS)-3-(4-Chlorophenyl)-N-(3-methyl-1,1-dioxothiolan-3-yl)-5-(4-propan-2-ylpyrimidin-5-yl)-benzamide] had a Kb at human EAAT3 of 310 nM.
The molecule `CC(C)(C)NC(=O)c1cc(-c2ccc(C(F)(F)F)cc2)cc(-c2cncnc2C(C)(C)C)c1` [Example 49, N-tert-Butyl-3-(4-tert-butyl-pyrimidin-5-yl)-5-[4-(trifluoromethyl)-phenyl]-benzamide] displayed a melting point of 91 °C.
At human EAAT3, `Cc1ncccc1-c1cc(C(=O)NC(C)(C)C(F)(F)F)cc(-c2ccc(Cl)cc2)c1` [Example 19, 3-(4-Chlorophenyl)-5-(2-methylpyridin-3-yl)-N-(1,1,1-trifluoro-2-methylpropan-2-yl)-benzamide] came in with an antagonist equilibrium constant (Kb) of 340 nM.
On to `Cc1ccncc1-c1cc(C(=O)NC(C)(C)C)cc(-c2ccc(Cl)cc2)c1` [Example 7, N-tert-Butyl-3-(4-chlorophenyl)-5-(4-methylpyridin-3-yl)-benzamide], for which the Kb on human EAAT3 was determined as 310 nM. The Kb values of the last two molecules are within 1.5-fold of each other.
Molecule `CC(C)(C)NC(=O)c1cc(-c2ccc(Cl)cc2)cc(-c2cnccc2C(C)(C)C)c1` [Example 53, N-tert-Butyl-3-(4-tert-butylpyridin-3-yl)-5-(4-chlorophenyl)-benzamide] came in with a melting point of 63.5 °C.
`Cc1ncncc1-c1cc(C(=O)NC(C)(C)C)cc(-c2ccc(Cl)cc2)c1` [Example 41, N-tert-Butyl-3-(4-chlorophenyl)-5-(4-methyl-pyrimidin-5-yl)-benzamide] came in with a melting point of 192 °C.
`CCC(C)(C)NC(=O)c1cc(-c2ccc(C)cc2)cc(-c2cncnc2)c1` [Example 2, N-(2-Methylbutan-2-yl)-3-(4-methylphenyl)-5-pyrimidin-5-ylbenzamide] gave a Kb on human EAAT3 of 220 nM.
Molecule `CC(C)c1ncncc1-c1cc(C(=O)NC(C)(C)CO)cc(-c2ccc(F)cc2)c1` [Example 44, 3-(4-Fluorophenyl)-N-(1-hydroxy-2-methylpropan-2-yl)-5-(4-propan-2-yl-pyrimidin-5-yl)-benzamide] showed a melting point of 63 °C.
`CC(C)(C)NC(=O)c1cc(-c2ccc(Cl)cc2)cc(-c2cncnc2C(C)(C)C)c1` [Example 42, N-tert-Butyl-3-(4-tert-butyl-pyrimidin-5-yl)-5-(4-chlorophenyl)-benzamide]: the melting point came out at 108 °C.
`Cc1ncccc1-c1cc(C(=O)NC(C)(C)C2CC2)cc(-c2ccc(Cl)cc2)c1` [Example 17, 3-(4-Chlorophenyl)-N-(2-cyclopropylpropan-2-yl)-5-(2-methylpyridin-3-yl)-benzamide] showed a Kb on human EAAT3 of 640 nM.
In turn, `CC(C)c1ncncc1-c1cc(C(=O)NC(C)(C)CO)cc(-c2ccc(C(F)(F)F)cc2)c1` [Example 45, N-(1-Hydroxy-2-methylpropan-2-yl)-3-(4-propan-2-yl-pyrimidin-5-yl)-5-[4-(trifluoromethyl)-phenyl]-benzamide] had a melting point of 80 °C.
Regarding `CCC(C)(C)NC(=O)c1cc(-c2ccc(C)cc2)cc(-c2cnccc2C)c1` [Example 4, N-(2-Methylbutan-2-yl)-3-(4-methylphenyl)-5-(4-methylpyridin-3-yl)-benzamide], at human EAAT3, the Kb stood at 290 nM.
Consider `CCC(C)(C)NC(=O)c1cc(-c2ccc(C)cc2)cc(-c2cccnc2C)c1` [Example 5, N-(2-Methylbutan-2-yl)-3-(4-methylphenyl)-5-(2-methylpyridin-3-yl)-benzamide], for which, at human EAAT3, the Kb came to 250 nM.
In the case of `CC(C)c1ncncc1-c1cc(C(=O)NC(C)(C)C2CC2)cc(-c2ccc(Cl)cc2)c1` [Example 16, 3-(4-Chlorophenyl)-N-(2-cyclopropylpropan-2-yl)-5-(4-propan-2-ylpyrimidin-5-yl)-benzamide], the Kb on human EAAT3 was found to be 420 nM.
Turning to `Cc1ncccc1-c1cc(C(=O)NC2(C)CCS(=O)(=O)C2)cc(-c2ccc(Cl)cc2)c1` (racemic) [Example 13, (RS)-3-(4-Chlorophenyl)-N-(3-methyl-1,1-dioxothiolan-3-yl)-5-(2-methyl-pyridin-3-yl)-benzamide], at human EAAT3, the Kb turned out to be 510 nM.
Regarding `CC(C)c1ncncc1-c1cc(C(=O)NC(C)(C)CO)cc(-c2ccc(Cl)cc2)c1` [Example 43, 3-(4-Chlorophenyl)-N-(1-hydroxy-2-methylpropan-2-yl)-5-(4-propan-2-yl-pyrimidin-5-yl)-benzamide], the melting point worked out at 86 °C.
As for `CCC(C)(C)NC(=O)c1cc(-c2ccc(C)cc2)cc(-c2cncnc2C(C)C)c1` [Example 3, N-(2-Methylbutan-2-yl)-3-(4-methylphenyl)-5-(4-propan-2-ylpyrimidin-5-yl)-benzamide], the Kb on human EAAT3 came to 230 nM. This counts as sub-micromolar.
With `CCC(C)(C)NC(=O)c1cc(-c2ccc(C)cc2)cc(-c2cccnc2)c1` [Example 1, N-(2-Methylbutan-2-yl)-3-(4-methylphenyl)-5-pyridin-3-ylbenzamide], the Kb on human EAAT3 was 325 nM.
